Reference: patent US12398101B2, “Herbicidal 2-azaspiro[3-5]nonane compounds” (SYNGENTA CROP PROTECTION AG, priority 2018, dated 2025)

Experiments:
Assay type in all cases: in vivo
Details in all cases: 250 g/h, evaluated after 13 days
[1] = test system: Avena fatua (AVEFA); assay: Glasshouse herbicide test, pre-emergence application
Method: (§1) Seeds of a variety of test species are sown in standard soil in pots (Lolium perenne (LOLPE), Setaria faberi (SETFA), Echinochloa crus-galli (ECHCG), Avena fatua (AVEFA)). After cultivation for one day (pre-emergence) or after 8 days cultivation (post-emergence) under controlled conditions in a glasshouse (at 24/16° C., day/night; 14 hours light; 65% humidity), the plants are sprayed with an aqueous spray solution derived from the formulation of the technical active ingredient in acetone/water (50:50) solution containing 0.5% Tween 20 (polyoxyethelyene sorbitan monolaurate, CAS RN 9005-64-5). Compounds are applied at 250 g/h. The test plants are then grown in a glasshouse under controlled conditions in a glasshouse (at 24/16° C., day/night; 14 hours light; 65% humidity) and watered twice daily. After 13 days for pre and post-emergence, the test is evaluated for the percentage damage caused to the plant. The biological activities are shown in the following table on a five point scale (5=80-100%; 4=60-79%; 3=40-59%; 2=20-39%; 1=0-19%).

[2] = test system: Echinochloa crus-galli (ECHCG); assay: as above
Method: as §1

[3] = test system: Lolium perenne (LOLPE); assay: as above
Method: as §1

[4] = test system: Setaria faberi (SETFA); assay: as above
Method: as §1

[5] = test system: Avena fatua (AVEFA); assay: Glasshouse herbicide test, post-emergence application
Method: as §1

[6] = test system: Echinochloa crus-galli (ECHCG); assay: as above
Method: as §1

[7] = test system: Lolium perenne (LOLPE); assay: as above
Method: as §1

[8] = test system: Setaria faberi (SETFA); assay: as above
Method: as §1

Row | SMILES | percentage damage caused to the plant, five point scale, AVEFA [1] | percentage damage caused to the plant, five point scale, ECHCG [2] | percentage damage caused to the plant, five point scale, LOLPE [3] | percentage damage caused to the plant, five point scale, SETFA [4] | percentage damage caused to the plant, five point scale, AVEFA [5] | percentage damage caused to the plant, five point scale, ECHCG [6] | percentage damage caused to the plant, five point scale, LOLPE [7] | percentage damage caused to the plant, five point scale, SETFA [8]
1 | CC#Cc1cc(C)c(C2C(=O)CC3(CC2=O)CN(S(=O)(=O)CC)C3)c(C)c1 [Compound 1.002] | 5 (5=80-100%) | 5 (5=80-100%) | 5 (5=80-100%) | 5 (5=80-100%) | 5 (5=80-100%) | 5 (5=80-100%) | 5 (5=80-100%) | 5 (5=80-100%)
2 | CC#Cc1cc(C)c(C2C(=O)CC3(CC2=O)CN(C(=O)c2ccccc2)C3)c(C)c1 [Compound 1.003, 2-benzoyl-7-(2,6-dimethyl-4-prop-1-ynyl-phenyl)-2-azaspiro[3.5]nonane-6,8-dione] | 5 (5=80-100%) | 5 (5=80-100%) | 5 (5=80-100%) | 5 (5=80-100%) | 5 (5=80-100%) | 5 (5=80-100%) | 5 (5=80-100%) | 5 (5=80-100%)
3 | CC#Cc1cc(C)c(C2C(=O)CC3(CC2=O)CN(C(=O)c2ccccn2)C3)c(C)c1 [Compound 1.004] | 5 (5=80-100%) | 5 (5=80-100%) | 5 (5=80-100%) | 5 (5=80-100%) | 5 (5=80-100%) | 5 (5=80-100%) | 5 (5=80-100%) | 5 (5=80-100%)
4 | CC#Cc1cc(C)c(C2C(=O)CC3(CC2=O)CN(C(=O)COC)C3)c(C)c1 [Compound 1.005] | 5 (5=80-100%) | 5 (5=80-100%) | 5 (5=80-100%) | 5 (5=80-100%) | 5 (5=80-100%) | 5 (5=80-100%) | 5 (5=80-100%) | 5 (5=80-100%)
5 | CC#Cc1cc(C)c(C2C(=O)CC3(CC2=O)CN(C(=O)NC(C)(C)C)C3)c(C)c1 [Compound 1.006] | 2 (2=20-39%) | 5 (5=80-100%) | 5 (5=80-100%) | 5 (5=80-100%) | 5 (5=80-100%) | 5 (5=80-100%) | 5 (5=80-100%) | 5 (5=80-100%)
6 | CC#Cc1cc(C)c(C2C(=O)CC3(CC2=O)CN(C(=O)NC(=O)C(C)(C)C)C3)c(C)c1 [Compound 1.007] | 3 (3=40-59%) | 5 (5=80-100%) | 5 (5=80-100%) | 5 (5=80-100%) | 4 (4=60-79%) | 5 (5=80-100%) | 5 (5=80-100%) | 4 (4=60-79%)
7 | CC#Cc1cc(C)c(C2C(=O)CC3(CC2=O)CN(C(=O)C2CC2)C3)c(C)c1 [Compound 1.008, 2-(cyclopropanecarbonyl)-7-(2,6-dimethyl-4-prop-1-ynyl-phenyl)-2-azaspiro[3.5]nonane-6,8-dione] | 5 (5=80-100%) | 5 (5=80-100%) | 5 (5=80-100%) | 5 (5=80-100%) | 5 (5=80-100%) | 5 (5=80-100%) | 5 (5=80-100%) | 5 (5=80-100%)
8 | CC#Cc1cc(C)c(C2C(=O)CC3(CC2=O)CN(C(=O)C(F)F)C3)c(C)c1 [Compound 1.009] | 5 (5=80-100%) | 5 (5=80-100%) | 5 (5=80-100%) | 5 (5=80-100%) | 5 (5=80-100%) | 5 (5=80-100%) | 5 (5=80-100%) | 5 (5=80-100%)
9 | CC#Cc1cc(C)c(C2C(=O)CC3(CC2=O)CN(C(=O)C(C)(C)C)C3)c(C)c1 [Compound 1.010] | 5 (5=80-100%) | 5 (5=80-100%) | 5 (5=80-100%) | 5 (5=80-100%) | 5 (5=80-100%) | 5 (5=80-100%) | 5 (5=80-100%) | 5 (5=80-100%)
10 | CC#Cc1cc(C)c(C2C(=O)CC3(CC2=O)CN(C(=O)NC(=O)c2ccccn2)C3)c(C)c1 [Compound 1.011] | 1 (1=0-19%) | 2 (2=20-39%) | 2 (2=20-39%) | 3 (3=40-59%) | 3 (3=40-59%) | 3 (3=40-59%) | 3 (3=40-59%) | 5 (5=80-100%)
11 | CC#Cc1cc(C)c(C2C(=O)CC3(CC2=O)CN(C(=O)CC#N)C3)c(C)c1 [Compound 1.012] | 5 (5=80-100%) | 5 (5=80-100%) | 5 (5=80-100%) | 5 (5=80-100%) | 4 (4=60-79%) | 5 (5=80-100%) | 5 (5=80-100%) | 5 (5=80-100%)
12 | CC#Cc1cc(C)c(C2C(=O)CC3(CC2=O)CN(C(C)=O)C3)c(OC)c1 [Compound 1.013] | 5 (5=80-100%) | 5 (5=80-100%) | 5 (5=80-100%) | 5 (5=80-100%) | 5 (5=80-100%) | 5 (5=80-100%) | 5 (5=80-100%) | 5 (5=80-100%)
